Experimental data published in US20080044348A1 (priority 2006, published 2008).

tested on: HIF1α signaling; assay type: cell-based

Compound	effect on CoCl2-induced HIF1α signaling	time to induce hypoxia in the entire spheroid [h]
PD 168393	no significant effect on HIF1α signaling	–
Nc1ccn([C@@H]2O[C@H](CO)[C@@H](O)C2(F)F)c(=O)n1 [Gemzar]	suppressed CoCl2-induced HIF1α signaling	–
[Cl][Co][Cl] [Cobalt chloride]	–	6 to 8
Cc1ccc(NC(=O)c2ccc(CN3CCN(C)CC3)cc2)cc1Nc1nccc(-c2cccnc2)n1 [Gleevec]	no significant effect on HIF1α signaling	–
C#Cc1cccc(Nc2ncnc3cc(OCCOC)c(OCCOC)cc23)c1 [Tarceva]	suppressed CoCl2-induced HIF1α signaling	–
COc1cc2c(cc1OC)[C@@H]1C(=O)c3ccc4c(c3O[C@@H]1CO2)C=CC(C)(C)O4 [Deguelin]	no significant effect on HIF1α signaling	–
COc1ccc(C[C@H]2NC[C@H](O)[C@H]2OC(C)=O)cc1 [Anisomycin]	suppressed CoCl2-induced HIF1α signaling	–
CCCCCCCCCCC[C@@H](C[C@@H]1OC(=O)[C@H]1CCCCCC)OC(=O)[C@H](CC(C)C)NC=O [Orlistat]	suppressed CoCl2-induced HIF1α signaling	–
COc1cc(C[C@H]2C(=O)OC[C@@H]2Cc2ccc(OC)c(OC)c2)ccc1O [Arctigenin]	suppressed CoCl2-induced HIF1α signaling	–
COc1cc2ncnc(Nc3ccc(F)c(Cl)c3)c2cc1OCCCN1CCOCC1 [Iressa]	suppressed CoCl2-induced HIF1α signaling	–
C[S+]([O-])c1ccc(-c2nc(-c3ccncc3)c(-c3ccc(F)cc3)[nH]2)cc1 (centres unmarked) [SB 203580]	no significant effect on HIF1α signaling	–
